# Laboratory results: article PMC7948490, “Mechanochemical properties of human myosin-1C are modulated by isoform-specific differences in the N-terminal extension” (The Journal of Biological Chemistry, 2020)
# Key:
# [1] = biological target: T1, Myo1C^35-ΔTH1 (acto·Myo1C^35-ΔTH1) (Homo sapiens, UniProt O00159); test: stopped-flow, ADP inhibition of ATP-induced dissociation from pyrene-labeled F-actin, slow-phase amplitude fraction; format: binding
# T1 construct: 35-residue N-terminal extension + motor domain + 3 IQ motifs + post-IQ; C-terminal 176-residue TH1 domain replaced by C-terminal octa-histidine tag; coproduced with human calmodulin in baculovirus/Sf9; with Calmodulin-1; Actin, alpha skeletal muscle (Gallus gallus, chicken pectoralis major muscle F-actin, pyrene-labeled)
# T1 sequence (O00159 1-887, stated change not applied): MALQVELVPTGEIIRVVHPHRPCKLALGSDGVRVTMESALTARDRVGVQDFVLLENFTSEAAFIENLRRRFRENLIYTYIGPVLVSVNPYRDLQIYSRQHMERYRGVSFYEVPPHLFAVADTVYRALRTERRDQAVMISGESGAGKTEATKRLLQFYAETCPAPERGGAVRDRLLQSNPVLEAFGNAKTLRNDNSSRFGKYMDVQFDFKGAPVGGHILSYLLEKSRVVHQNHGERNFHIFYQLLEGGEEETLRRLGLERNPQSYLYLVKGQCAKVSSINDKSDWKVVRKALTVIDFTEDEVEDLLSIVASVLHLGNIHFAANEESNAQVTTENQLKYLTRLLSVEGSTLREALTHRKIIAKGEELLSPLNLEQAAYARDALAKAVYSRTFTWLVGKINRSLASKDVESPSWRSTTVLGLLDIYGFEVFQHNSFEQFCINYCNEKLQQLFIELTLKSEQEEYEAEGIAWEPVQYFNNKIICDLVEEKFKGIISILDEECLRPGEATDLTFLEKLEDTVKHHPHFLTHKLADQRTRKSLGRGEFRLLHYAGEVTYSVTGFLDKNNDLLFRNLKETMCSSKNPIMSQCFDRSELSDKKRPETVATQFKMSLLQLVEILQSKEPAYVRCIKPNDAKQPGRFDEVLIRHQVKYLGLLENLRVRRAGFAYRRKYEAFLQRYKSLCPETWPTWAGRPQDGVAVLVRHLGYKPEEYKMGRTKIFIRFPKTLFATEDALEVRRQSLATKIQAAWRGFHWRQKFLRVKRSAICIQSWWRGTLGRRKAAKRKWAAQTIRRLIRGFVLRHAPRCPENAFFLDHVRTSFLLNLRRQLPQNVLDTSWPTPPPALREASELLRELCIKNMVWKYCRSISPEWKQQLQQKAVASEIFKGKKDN
# Excerpt: stopped-flow, ADP inhibition of ATP-induced dissociation from pyrene-labeled F-actin, slow-phase amplitude fraction on Myo1C^35-ΔTH1 (acto·Myo1C^35-ΔTH1)
# [2] = biological target: T1, Myo1C^35-ΔTH1 (acto·Myo1C^35-ΔTH1); test: stopped-flow, ATP-induced dissociation from pyrene-labeled F-actin, fast phase; format: binding
# Excerpt: stopped-flow, ATP-induced dissociation from pyrene-labeled F-actin, fast phase on Myo1C^35-ΔTH1 (acto·Myo1C^35-ΔTH1)
Kd [1],Kd [2],Compound
230 ± 30 nM,,Nc1ncnc2c1ncn2[C@@H]1O[C@H](COP(=O)(O)OP(=O)(O)O)[C@@H](O)[C@H]1O [ADP]
,405 ± 79 µM,Nc1ncnc2c1ncn2[C@@H]1O[C@H](COP(=O)(O)OP(=O)(O)OP(=O)(O)O)[C@@H](O)[C@H]1O [ATP]
